{"source": "patent US20060069132A1", "about": "“Azolecarboxamide herbicides” (priority 2004, published 2006)", "experiment_in_all_cases": "Test E pre-/postemergence herbicide test", "key": {"large crabgrass": {"tested_on": "large crabgrass", "assay_type": "in vivo, Digitaria sanguinalis", "method_in_brief": "(§1)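 Ratings from 0 (no effect) to 100 (complete control) were assigned by visual comparison with untreated plants 12 to 14 days after application. Test chemicals, formulated with surfactant in a non-phytotoxic solvent blend, were applied to soil after planting or to foliage of 2–18 cm plants.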"}, "johnsongrass": {"tested_on": "johnsongrass", "assay_type": "in vivo, Sorghum halepense", "method_in_brief": "as §1"}, "common groundsel": {"tested_on": "common groundsel", "assay_type": "in vivo, Senecio vulgaris", "description": "(§2) Seeds of plant species selected from bipinnate beggarticks (Bidens bipinnata L.), hairy beggarticks (Bidens radiata Thuill.), bermudagrass (Cynodon dactylon (L.) Pers.), Surinam grass (Urochloa decumbens (Staph) R. D. Webster, previously named Brachiaria decumbens Stapf), large crabgrass (Digitaria sanguinalis (L.) Scop.), green foxtail (Setaria viridis (L.) P. Beauv.), goosegrass (Eleusine indica (L.) Gaertn.), johnsongrass (Sorghum halepense (L.) Pers.), kochia (Kochia scoparia (L.) Schrad.), pitted morningglory (Ipomoea lacunosa L.), purple nutsedge (Cyperus rotundus L.), common ragweed (Ambrosia elatior L.), mustard (Brassica nigra (L.) W. D. J. Koch), guineagrass (Panicum maximum Jacq.), dallisgrass (Paspalum dilatatum Poir.), barnyardgrass (Echinochloa crus-galli (L). P. Beauv.), southern sandbur (Cenchrus echinatus L.), common sowthistle (Sonchus oleraceous L.), prickly sida (Sida spinosa L.), Italian ryegrass (Lolium multiflorum Lam.), common purslane (Portulaca oleracea L.), broadleaf signalgrass (Brachiaria platyphylla (Griseb.) Nash), common groundsel (Senecio vulgaris L.), common chickweed (Stellaria media (L.) Vill/Cyr.), tropical spiderwort (Commelina benghalensis L.), annual bluegrass (Poa annua L.), downy bromegrass (Bromus tectorum L.), itchgrass (Rottboellia cochinchinensis (L.) L.f.), quackgrass (Elytrigia repens (L.) Nevski), Canada horseweed (Erigeron Canadensis L.), field bindweed (Convolvulus arvensis L.), spotted spurge (Euphorbia maculata L.), common mallow (Malva sylvestris (=s silvestris) L.), and Russian thistle (Salsola kali L. ssp. Ruthenica (Iljin) Soo) were planted and treated preemergence with test chemicals formulated in a non-phytotoxic solvent mixture which included a surfactant.\n(§3) At the same time, plants selected from these weed species were treated with postemergence applications of some of the test chemicals formulated in the same manner. Plants ranged in height from 2 to 18 cm (1- to 4-leaf stage) for postemergence treatments. Treated plants and controls were maintained in a greenhouse for 12 to 14 days, after which time all species were compared to controls and visually evaluated. Plant response ratings, summarized in Table E, are based on a scale of 0 to 100 where 0 is no effect and 100 is complete control. A dash (-) response means no test result."}, "field bindweed": {"tested_on": "field bindweed", "assay_type": "in vivo, Convolvulus arvensis", "method_in_brief": "as §1"}, "barnyardgrass": {"tested_on": "barnyardgrass", "assay_type": "in vivo, Echinochloa crus-galli", "method_in_brief": "as §1"}, "downy bromegrass": {"tested_on": "downy bromegrass", "assay_type": "in vivo, Bromus tectorum", "method_in_brief": "as §1"}, "guineagrass": {"tested_on": "guineagrass", "assay_type": "in vivo, Panicum maximum", "method_in_brief": "as §1"}, "broadleaf signalgrass": {"tested_on": "broadleaf signalgrass", "assay_type": "in vivo, Brachiaria platyphylla", "method_in_brief": "as §1"}, "common purslane": {"tested_on": "common purslane", "assay_type": "in vivo, Portulaca oleracea", "conditions": "Preemergence, scale 0 (no effect) to 100 (complete control)", "description": "as §2, §3"}, "[1]": {"conditions": "Postemergence, 250 g ai/ha, scale 0 to 100"}, "[2]": {"conditions": "Preemergence, 62 g ai/ha, scale 0 to 100"}, "[3]": {"conditions": "Preemergence, 125 g ai/ha, scale 0 (no effect) to 100 (complete control)"}, "[4]": {"conditions": "Preemergence, 250 g ai/ha, scale 0 (no effect) to 100 (complete control)"}, "[5]": {"conditions": "Preemergence, 500 g ai/ha, scale 0 (no effect) to 100 (complete control)"}, "[6]": {"conditions": "postemergence, 125 g ai/ha, scale 0 to 100"}, "[7]": {"conditions": "postemergence, 62 g ai/ha, scale 0 to 100"}}}
{"smiles": "CCNC(=O)c1ccc(F)c(NC(=O)c2cc(C(C)(C)C)nn2CC)c1", "note": "[Compound 2, 3-(1,1-dimethylethyl)-1-ethyl-N-[5-[(ethylamino)carbonyl]-2-fluorophenyl]-1H-pyrazole-5-carboxamide]", "values": [{"measurement": "Plant response rating, Crabgrass, Large", "setting": "large crabgrass; [1]", "value": 98}, {"measurement": "Plant response rating, Crabgrass, Large", "setting": "large crabgrass; [2]", "value": 70}, {"measurement": "Plant response rating, Crabgrass, Large", "setting": "large crabgrass; [3]", "value": 80}, {"measurement": "Plant response rating, Crabgrass, Large", "setting": "large crabgrass; [4]", "value": 100}, {"measurement": "Plant response rating, Crabgrass, Large", "setting": "large crabgrass; [5]", "value": 100}, {"measurement": "Plant response rating, Crabgrass, Large", "setting": "large crabgrass; [6]", "value": 95}, {"measurement": "Plant response rating, Crabgrass, Large", "setting": "large crabgrass; [7]", "value": 90}, {"measurement": "Plant response rating, Johnsongrass", "setting": "johnsongrass; [1]", "value": 100}, {"measurement": "Plant response rating, Johnsongrass", "setting": "johnsongrass; [2]", "value": 90}, {"measurement": "Plant response rating, Johnsongrass", "setting": "johnsongrass; [3]", "value": 90}, {"measurement": "Plant response rating, Johnsongrass", "setting": "johnsongrass; [4]", "value": 100}, {"measurement": "Plant response rating, Johnsongrass", "setting": "johnsongrass; [5]", "value": 100}, {"measurement": "Plant response rating, Johnsongrass", "setting": "johnsongrass; [6]", "value": 90}, {"measurement": "Plant response rating, Johnsongrass", "setting": "johnsongrass; [7]", "value": 80}, {"measurement": "Plant response rating, Groundsel", "setting": "common groundsel; [1]", "value": 80}, {"measurement": "Plant response rating, Groundsel", "setting": "common groundsel; [2]", "value": 60}, {"measurement": "Plant response rating, Groundsel", "setting": "common groundsel; [3]", "value": 70}, {"measurement": "Plant response rating, Groundsel", "setting": "common groundsel; [4]", "value": 100}, {"measurement": "Plant response rating, Groundsel", "setting": "common groundsel; [5]", "value": 100}, {"measurement": "Plant response rating, Bindweed, Field", "setting": "field bindweed; [1]", "value": 70}, {"measurement": "Plant response rating, Bindweed, Field", "setting": "field bindweed; [2]", "value": 10}, {"measurement": "Plant response rating, Bindweed, Field", "setting": "field bindweed; [4]", "value": 70}, {"measurement": "Plant response rating, Bindweed, Field", "setting": "field bindweed; [5]", "value": 80}, {"measurement": "Plant response rating, Bindweed, Field", "setting": "field bindweed; [6]", "value": 70}, {"measurement": "Plant response rating, Bindweed, Field", "setting": "field bindweed; [7]", "value": 50}, {"measurement": "Plant response rating, Barnyardgrass", "setting": "barnyardgrass; [1]", "value": 95}, {"measurement": "Plant response rating, Barnyardgrass", "setting": "barnyardgrass; [2]", "value": 60}, {"measurement": "Plant response rating, Barnyardgrass", "setting": "barnyardgrass; [3]", "value": 80}, {"measurement": "Plant response rating, Barnyardgrass", "setting": "barnyardgrass; [4]", "value": 100}, {"measurement": "Plant response rating, Barnyardgrass", "setting": "barnyardgrass; [5]", "value": 100}, {"measurement": "Plant response rating, Barnyardgrass", "setting": "barnyardgrass; [6]", "value": 90}, {"measurement": "Plant response rating, Barnyardgrass", "setting": "barnyardgrass; [7]", "value": 80}, {"measurement": "Plant response rating, Bromegrass, Downy", "setting": "downy bromegrass; [1]", "value": 98}, {"measurement": "Plant response rating, Bromegrass, Downy", "setting": "downy bromegrass; [2]", "value": 50}, {"measurement": "Plant response rating, Bromegrass, Downy", "setting": "downy bromegrass; [3]", "value": 90}, {"measurement": "Plant response rating, Bromegrass, Downy", "setting": "downy bromegrass; [4]", "value": 90}, {"measurement": "Plant response rating, Bromegrass, Downy", "setting": "downy bromegrass; [5]", "value": 90}, {"measurement": "Plant response rating, Bromegrass, Downy", "setting": "downy bromegrass; [6]", "value": 75}, {"measurement": "Plant response rating, Bromegrass, Downy", "setting": "downy bromegrass; [7]", "value": 65}, {"measurement": "Plant response rating, Guineagrass", "setting": "guineagrass; [1]", "value": 95}, {"measurement": "Plant response rating, Guineagrass", "setting": "guineagrass; [2]", "value": 70}, {"measurement": "Plant response rating, Guineagrass", "setting": "guineagrass; [3]", "value": 80}, {"measurement": "Plant response rating, Guineagrass", "setting": "guineagrass; [4]", "value": 100}, {"measurement": "Plant response rating, Guineagrass", "setting": "guineagrass; [5]", "value": 100}, {"measurement": "Plant response rating, Guineagrass", "setting": "guineagrass; [6]", "value": 75}, {"measurement": "Plant response rating, Guineagrass", "setting": "guineagrass; [7]", "value": 30}, {"measurement": "Plant response rating, Signalgrass", "setting": "broadleaf signalgrass; [1]", "value": 85}, {"measurement": "Plant response rating, Signalgrass", "setting": "broadleaf signalgrass; [2]", "value": 50}, {"measurement": "Plant response rating, Signalgrass", "setting": "broadleaf signalgrass; [3]", "value": 70}, {"measurement": "Plant response rating, Signalgrass", "setting": "broadleaf signalgrass; [4]", "value": 75}, {"measurement": "Plant response rating, Signalgrass", "setting": "broadleaf signalgrass; [5]", "value": 90}, {"measurement": "Plant response rating, Signalgrass", "setting": "broadleaf signalgrass; [6]", "value": 80}, {"measurement": "Plant response rating, Signalgrass", "setting": "broadleaf signalgrass; [7]", "value": 30}, {"measurement": "Plant response rating, Purslane", "setting": "common purslane; 125 g ai/ha", "value": 100}, {"measurement": "Plant response rating, Purslane", "setting": "common purslane; 250 g ai/ha", "value": 100}, {"measurement": "Plant response rating, Purslane", "setting": "common purslane; 500 g ai/ha", "value": 100}]}
